Measurements reported in EP4537820A1, “COMPOUND AND COMBINATIONS COMPRISING SAID COMPOUND TO IMPROVE IMMUNE RESPONSE” (Institut Gustave-Roussy, priority 2023, dated 2025).

Columns and labels:
20S-REGγ complex = molecular target: T1, 20S-REGγ complex (Homo sapiens, UniProt P61289); test: First confirmatory counter-screen of hits, fluorescence kinetic proteasome activity test; type: biochemical; conditions: counter-screen at 10, 20 and 40µM, 90min kinetic assay
T1 construct: purchased Biotechne E-360-050 (20S); E-384-MTO (REGγ); host or cells: 20S from human erythrocytes
T1 sequence (P61289 whole entry, one chain of several): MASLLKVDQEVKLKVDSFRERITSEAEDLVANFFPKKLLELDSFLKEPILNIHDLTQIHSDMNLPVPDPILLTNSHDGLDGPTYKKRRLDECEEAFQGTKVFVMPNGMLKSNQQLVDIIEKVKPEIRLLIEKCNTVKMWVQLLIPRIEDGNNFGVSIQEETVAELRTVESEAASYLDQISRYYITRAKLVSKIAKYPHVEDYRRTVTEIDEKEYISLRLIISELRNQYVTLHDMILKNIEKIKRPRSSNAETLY
Experimental: The 3 chemical libraries tested were obtained from the NIH : The Natural Products set (NP.V) consisting of 390 compounds, the Oncology Approved Drugs set (AOD.IX) consisting of 147 FDA-approved compounds and the Diversity set (DIV.VI) consisting of 1584 compounds. Libraries were prepared and screened with a Biomek FXP workstation in 384 well plates. Compounds activity was assessed using a fluorescence activity test of the proteasome using the Bz-VGR-AMC fluorogenic substrate (#BML-BW9375-0005, Enzo Life Sciences). […] After preparation of the mix, plates were incubated for 2h at 37°C before being read on a Spectramax i3 microplate reader from Molecular devices (Excitation wavelength : 345nm; Emission wavelength : 445nm). […]
After QC verification, each plate was normalized to the mean of the VGR control. For every quadruplicate the most different value from the mean was eliminated and the fluorescence mean for each compound was calculated on the 3 remaining values. The percentage of inhibition of a compound was calculated according to, as follows : %Inhibition(compound) = (MeanREG,plate −Meancompound)/(MeanREG,plate −Mean20S,plate) × 100, [formula] for the condition with REG[…]. […]
After conducting the screening and validating the quality control using a custom algorithm, they analyzed the data to select their hits. […]

[1] = system: MCA205-Glob-SL8-intron cells; test: MHC-I expression, antigen presentation and PD-L1 surface expression by flow cytometry; type: cell-based, mouse; conditions: 24 hours
Experimental: 2×10^5 of MCA205-Glob-SL8-intron cells were plated in 6-well plates and incubated overnight. The next day cells were treated with different concentrations of drugs for 24h. After treatment, cells were harvested with trypsin before being stained with Zombie Aqua (#423102, Biolegend) and antibodies presented in Table 1 following the protocol provided by the supplier. Samples were acquired on a FACS LSRFortessa X20 (BD Biosciences) and data was analysed with FlowJo (V10) software (TreeStar, Inc.). Table 1: Panels of antibodies for the study of surface expression of MHC-I molecules and SIINFEKL presentation in MCA205-Glob-SL8-intron.
Inventors previously reported a novel and unexpected role of the REGγ-20S complex in the degradation of MHC-I peptides in cancer. In order to elucidate the potential impact of compound 58 on the REGγ-20S complex's modulation of antigenic peptide degradation, they treated mouse MCA205 cells stably expressing the globin-SL8-intron construct with increasing concentrations of compound 58 for 24 hours.
Additionally, they explored the impact of compound 58 on the expression of MHC-I on the surface of MCA205 cells stably expressing the globin-SL8-intron construct. After treating these cells with varying doses of compound 58 for 24 hours, they assessed the levels of murine MHC-I H2-K^b and H2-D^b using flow cytometry. The percentage of cells labeled positively for H2-K^b and H2-D^b in the treated conditions was compared to that in the DMSO control condition.
Furthermore, inventors investigated whether compound 58 had the capability to alter PD-L1 expression on the cell surface of treated tumor cells. To examine this, they exposed MCA205 cells stably expressing the globin-SL8-intron construct to varying concentrations of compound 58 for 24 hours and subsequently assessed PD-L1 expression levels via flow cytometry.

[2] = 5µm to 25 µM, compared to DMSO control

Cc1ccc(N=Nc2ccc(C)cc2NC(=O)Nc2ccccc2F)cc1 [compound 58]
inhibition of the effect of REGγ on proteasomal protein degradation (20S-REGγ complex): inhibit the effect of REGγ on proteasomal protein degradation
presentation of the SIINFEKL peptide (Kb-SIINFEKL complexes on the cell surface) ([1]; 25µM, 25-D1.16 antibody, compared to untreated cells): significant increase
expression of H2-D^b molecules on the cell surface [1, 2]: dose-dependent increase
expression of H2-K^b molecules on the cell surface [1, 2]: dose-dependent increase
PD-L1 expression on the cell surface ([1]; varying concentrations, dose-dependent manner): significantly increased PD-L1 expression
